PMC7158045 (BMC Plant Biology, 2020)
Counter-ions that a name gives are not always drawn.

Legend:
[1] = target: T1, ZmDRIK1 (DROUGHT RESPONSIVE INACTIVE KINASE 1), kinase domain (Zea mays, UniProt C0P4K9); assay: ITC; cocrystal structure at […] Å; DSF (ΔTm > […] °C); type: binding
T1 construct: gene ZEAMMB73_Zm00001d028770; ZmDRIK1-KD R187-S514 (kinase domain)
T1 sequence (C0P4K9 187-514): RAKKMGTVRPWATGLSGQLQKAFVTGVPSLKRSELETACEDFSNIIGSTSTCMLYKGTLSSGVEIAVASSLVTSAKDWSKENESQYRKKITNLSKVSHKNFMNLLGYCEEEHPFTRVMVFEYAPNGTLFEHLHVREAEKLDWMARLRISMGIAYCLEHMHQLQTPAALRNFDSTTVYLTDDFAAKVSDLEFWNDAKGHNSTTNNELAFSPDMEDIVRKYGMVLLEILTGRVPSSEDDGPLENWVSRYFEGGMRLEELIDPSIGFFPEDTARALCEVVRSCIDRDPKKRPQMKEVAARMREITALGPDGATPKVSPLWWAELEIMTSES

ZmDRIK1-K217-S514 = target: T2, ZmDRIK1-K217-S514 (Zea mays, UniProt C0P4K9); assay: biochemical; conditions: read-out: dTm B, sheet ZmDRIK1-K217-S514;; DSF, Boltzmann fit, 0.1% DMSO
T2 construct: kinase domain, K217-S514
T2 sequence (C0P4K9 1-514): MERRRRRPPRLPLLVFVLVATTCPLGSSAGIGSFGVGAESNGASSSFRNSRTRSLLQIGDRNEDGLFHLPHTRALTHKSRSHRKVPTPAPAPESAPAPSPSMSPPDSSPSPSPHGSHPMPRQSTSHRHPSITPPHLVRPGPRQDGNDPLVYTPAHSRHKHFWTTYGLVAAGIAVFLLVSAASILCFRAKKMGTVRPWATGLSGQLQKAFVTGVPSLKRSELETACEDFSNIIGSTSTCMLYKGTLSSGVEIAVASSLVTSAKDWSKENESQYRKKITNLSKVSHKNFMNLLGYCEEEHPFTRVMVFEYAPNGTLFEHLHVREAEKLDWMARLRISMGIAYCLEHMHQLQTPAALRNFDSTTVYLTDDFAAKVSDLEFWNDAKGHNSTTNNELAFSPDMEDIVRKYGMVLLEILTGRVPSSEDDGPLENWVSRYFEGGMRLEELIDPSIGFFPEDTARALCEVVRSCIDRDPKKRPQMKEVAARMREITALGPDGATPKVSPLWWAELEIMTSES

[2] = target: T1, ZmDRIK1 (DROUGHT RESPONSIVE INACTIVE KINASE 1), kinase domain; assay: biochemical; conditions: read-out: dTm B, sheet ZmDRIK1-R187-S514;; DSF, Boltzmann fit, 0.1% DMSO
ZmDRIK1-R187-P492 = target: T3, ZmDRIK1-R187-P492 (Zea mays, UniProt C0P4K9); assay: biochemical; conditions: read-out: dTm B, DSF, Boltzmann fit, 0.1% DMSO
T3 construct: kinase domain, R187-P492
T3 sequence (C0P4K9 1-514): T2 sequence (C0P4K9 1-514)

ZmDRIK1-K217-P492 = target: T4, ZmDRIK1-K217-P492 (Zea mays, UniProt C0P4K9); assay: biochemical; conditions: read-out: dTm B, sheet ZmDRIK1-K217-P492;; DSF, Boltzmann fit, 0.1% DMSO
T4 construct: kinase domain, K217-P492
T4 sequence (C0P4K9 1-514): T2 sequence (C0P4K9 1-514)

Row | Kd [1] | ΔTm at 10 µM (ZmDRIK1-K217-S514) | ΔTm at 10 µM [2] | ΔTm at 10 µM (ZmDRIK1-R187-P492) | ΔTm at 10 µM (ZmDRIK1-K217-P492) | Structure (SMILES)
1 | 551 nM | 4.13 °C | 4.28 °C | 4.32 °C | 3.49 °C | Cc1cc(Nc2cc(N3CCN(C)CC3)nc(/C=C/c3ccccc3)n2)n[nH]1 [ENMD-2076]
2 | – | -0.255 °C | -0.687 °C | 0.97 °C | -1.11 °C | COC(=O)Nc1ccc(-c2nc(N3CCOCC3)c3cnn(C4CCN(C(=O)OC)CC4)c3n2)cc1 [WYE-354]
3 | – | -0.0548 °C | -0.897 °C | -0.00788 °C | -0.696 °C | C=CC(=O)Nc1cccc(Oc2nc(Nc3ccc(N4CCN(C)CC4)cc3)ncc2Cl)c1 [WZ3146]
4 | – | -0.557 °C | -1.27 °C | -0.434 °C | -1.2 °C | C=CC(=O)Nc1cccc(Oc2nc(Nc3ccc(N4CCN(C)CC4)cc3OC)ncc2Cl)c1 [WZ4002]
5 | – | -0.358 °C | -0.786 °C | -0.432 °C | -1.1 °C | CCC(=O)Nc1cccc(Oc2nc(Nc3ccc(N4CCN(C)CC4)cc3OC)ncc2Cl)c1 [WZ4003]
6 | – | -0.291 °C | -0.927 °C | -0.275 °C | -0.667 °C | C=CC(=O)Nc1cccc(Sc2nc(Nc3ccc(N4CCN(C)CC4)cc3)ncc2Cl)c1 [WZ8040]
7 | – | -0.368 °C | -0.481 °C | -0.478 °C | -0.95 °C | O=C(Nc1ccc(-c2ccnc(Nc3ccc(N4CCOCC4)cc3)n2)cc1)C1CCCN1 (centres unmarked) [XL019]
8 | – | 0.807 °C | -0.972 °C | -0.0333 °C | 0.134 °C | COc1ccc(Cl)c(Nc2nc3ccccc3nc2NS(=O)(=O)c2cccc(NC(=O)C(C)(C)N)c2)c1 [XL147]
9 | – | -0.663 °C | -0.666 °C | -0.38 °C | -1.16 °C | CCOc1cc(N2CCC(O)CC2)ccc1Nc1ncc2c(n1)N(C)c1ccccc1C(=O)N2C [XMD8-92]
10 | – | -0.475 °C | -0.584 °C | -0.155 °C | -1.25 °C | C[C@@H](N)[C@H]1CC[C@H](C(=O)Nc2ccncc2)CC1 [Y-27632 2HCl]
11 | – | -0.166 °C | -1.01 °C | -0.134 °C | -1.02 °C | Cc1cc(C)nc(NS(=O)(=O)c2ccc(NC(=S)NC(=O)COc3ccc(Br)cc3Cl)cc2)n1 [ZCL278]
12 | – | -0.827 °C | -1.58 °C | -0.636 °C | -2.03 °C | CC(C)N(CCC(=O)c1ccc2ccccc2c1)Cc1ccccc1 [ZM 39923 HCl]
13 | – | -0.336 °C | -0.525 °C | -0.383 °C | -0.758 °C | COc1cc2ncnc(Nc3ccc(Cl)cc3F)c2cc1OC [ZM 306416]
14 | – | -0.146 °C | -1.06 °C | -1.9 °C | -0.816 °C | Cc1cc(F)c(Nc2ncnc3cc(OCc4ccccc4)ccc23)cc1O [ZM 323881 HCl]
15 | – | -0.418 °C | -1 °C | -0.214 °C | -0.965 °C | Cc1ccc(NC(=O)c2cccc(N(C)C)c2)cc1NC(=O)c1ccc(O)cc1 [ZM 336372]
16 | – | 0.111 °C | -0.965 °C | 0.124 °C | -0.314 °C | COc1cc2c(Nc3ccc(NC(=O)c4ccccc4)cc3)ncnc2cc1OCCCN1CCOCC1 [ZM 447439]
17 | – | -0.199 °C | -1.02 °C | -0.113 °C | -0.762 °C | FC(F)c1nc2ccccc2n1-c1nc(N2CCOCC2)nc(N2CCOCC2)n1 [ZSTK474]
18 | – | -0.269 °C | -0.396 °C | -0.286 °C | -0.534 °C | CO[C@H]1C[C@@H]2CC[C@@H](C)[C@@](O)(O2)C(=O)C(=O)N2CCCC[C@H]2C(=O)O[C@H]([C@H](C)C[C@@H]2CC[C@H](n3cnnn3)[C@H](OC)C2)CC(=O)[C@H](C)/C=C(\C)[C@@H](O)[C@@H](OC)C(=O)[C@H](C)C[C@H](C)/C=C/C=C/C=C/1C [Zotarolimus(ABT-578)]

Row | Structure (SMILES) | Kd [1] | ΔTm at 10 µM (ZmDRIK1-K217-S514) | ΔTm at 10 µM [2] | ΔTm at 10 µM (ZmDRIK1-R187-P492) | ΔTm at 10 µM (ZmDRIK1-K217-P492)
19 | COC[C@H]1OC(=O)c2coc3c2[C@@]1(C)C1=C(C3=O)[C@@H]2CCC(=O)[C@@]2(C)C[C@H]1OC(C)=O [Wortmannin] | – | -0.299 °C | -0.735 °C | -0.289 °C | -1.08 °C
